Experimental data published in US20240132431A1, “METHOD FOR ALKYLATING ACIDIC FUNCTIONAL GROUP” (Chugai Seiyaku Kabushiki Kaisha, priority 2021, published 2024).
Values belong to the molecule of their own block, whether it stands above or below them.

Target: T1, Bcl-2 protein (Recombinant Human Bcl-2 Protein) (Homo sapiens, UniProt P10415)
T1 construct: purchased Novus NBP2-34889
Assay: Binding evaluation of mixture library compounds to Bcl-2 using AS-MS (affinity selection mass spectrometry)
Conditions: for ASMS ratio (%) n = 1: replicate n = 1; for ASMS ratio (%) n = 1 / ASMS ratio (%) n = 2: ASMS Ratio(%)=(A−C)/B×100; for ASMS ratio (%) n = 2: replicate n = 2
Protocol: For one well of MICROPLATE, 96-well, PP, V-BOTTOM (Greiner bio-one, 651201), DMSO solutions of 12 mixtures (prepared to approximately 0.58 mM based on calculations from the average molecular weight of each mixture), in each of which 100 compounds are mixed, were each dispensed, and dispensed into a total of 12 wells, where the 12 mixtures are mixAI-B4J-01, mixAI-B1M-01, mixAI-B1K-01, mixAI-B10-01, mixAI-B1A-01, mixAI-B3A-01, mixAI-B21-01, mixAI-B2L-01, mixAI-B2N-01, mixAI-B2A-01, mixAI-B2Q-01, and mixAI-B2R-01 listed in [Table AI-03-B4J-01], [Table AI-03-B1M-01], [Table AI-03-B1K-01], [Table AI-03-B10-01], [Table AI-03-B1A-01], [Table AI-03-B3A-01], [Table AI-03-B2I-01], [Table AI-03-B2L-01], [Table AI-03-B2N-01], [Table AI-03-B2A-01], [Table AI-03-B2Q-01], and [AI-03-B2R-01] shown in Example 6. Using the LABCYTE ECHO® 555 Acoustic Dispensing System (BECKMAN COULTER), 70 nL was collected from each of the 12 wells into one arbitrary well to prepare a sample solution with 1200 compounds in the mixed state (the presence of 1152 compounds had already been identified when prepared in Example 6-5-3). (In the present specification, the mixture collected in this one well is referred to as one library.) Furthermore, a Bcl-2 protein (Novus, NBP2-34889, Recombinant Human Bcl-2 Protein, Lot E60145051) (19.2 μL) that had been prepared in advance to be 20.9 μM using a Tris-HCl buffer (25 mM Tris-HCl pH 7.4, 150 mM NaCl, 0.025% Tween-20, 1 mM DTT) was added to the well in which 1200 compounds (the presence of 1152 compounds had already been identified when prepared in Example 6-5-3) were dispensed (final compound concentration […], final Bcl-2 concentration 20 μM), and the mixture was incubated in the dark at 23° C. for 1 hour. Next, using the 96-well MacroSpin column, P-2 Material (Harvard, 74-5655) that had been swollen, conditioning of the 96-well MacroSpin column was performed three times by centrifugation with 200 μL of an assay buffer (25 mM Tris-HCl pH 7.4, 150 mM NaCl, 0.025% Tween-20, 1 mM DTT), 2000 XG, 4° C., 2 min. Subsequently, 20 μL of the sample after incubation was added to the 96-well MacroSpin column, P-2 Material, that had been conditioned, and SEC treatment was performed by centrifugation at 2000×G for 2 minutes. To the liquid passed from the SEC, 32 μL of a 1:1 mixed solution of acetonitrile and methanol (LC/MS grade, Fujifilm Wako Pure Chemical Corporation) was added, the mixture was centrifuged at 1800×G, 4° C., 5 min, and the supernatant was used as analysis sample ASMS (A), while a sample that had been prepared by the same operations at 1200 compounds/well and to which only the Tris-HCl buffer had been added without the Bcl-2 protein was incubated under the same conditions, no 96-well MacroSpin column treatment was performed, the same organic solvent was added, and the supernatant solution obtained by centrifugation was used as STD (B). Next, a sample that had been prepared by the same operations at 1200 compounds/well and to which only the Tris-HCl buffer had been added without the Bcl-2 protein was incubated under the same conditions, the same 96-well MacroSpin column treatment was performed, the same organic solvent was added, and the supernatant solution obtained by centrifugation was used as BK (C), and measured by reversed phase LC/MS.
Then, analysis of the 1200 compounds was carried out for samples A, B, and C with TraceFinder 5.1 (Thermo Fisher Scientific) and CHANCE Software (in-house), and the ASMS Ratio (%) was calculated according to the following calculation formula.
Calculation formula: ASMS Ratio(%)=(A−C)/B×100

[1] = AS-MS on the mixture of 1200 library compounds
[2] = AS-MS, mixture of 1200 compounds, Bcl-2

T1 sequence (P10415 whole entry): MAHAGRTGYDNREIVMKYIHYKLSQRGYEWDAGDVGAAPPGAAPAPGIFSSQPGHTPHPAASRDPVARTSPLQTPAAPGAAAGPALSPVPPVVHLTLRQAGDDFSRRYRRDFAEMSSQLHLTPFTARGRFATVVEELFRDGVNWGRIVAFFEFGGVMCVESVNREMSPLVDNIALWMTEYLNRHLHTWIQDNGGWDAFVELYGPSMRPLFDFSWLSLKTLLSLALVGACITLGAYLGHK

ASMS ratio (%) n = 1 (AS-MS, mixture library, Bcl-2): 22.8%
ASMS ratio (%) n = 2 (AS-MS, mixture library, Bcl-2): 13.9%
Molecule: CCOc1cncc(-c2ccc(CN3CCN(c4ccc(C(=O)NS(=O)(=O)c5ccc(NCCSc6ccccc6)c([N+](=O)[O-])c5)cc4)CC3)cc2F)c1 [B2Q052-01, 4-[4-[[4-(5-Ethoxypyridin-3-yl)-3-fluorophenyl]methyl]piperazin-1-yl]-N-[3-nitro-4-(2-phenylsulfanylethylamino)phenyl]sulfonylbenzamide]

ASMS ratio (%) n = 1 [1]: 0.6%
ASMS ratio (%) n = 2 [1]: −0.3%
Molecule: CCOc1cccc(C#Cc2cncc(C(=O)N3CCN(c4ccc(C(=O)N(C)CC56CC7CC(CC(C7)C5)C6)nn4)CC3)c2)c1 [B3A009-01, N-(1-Adamantylmethyl)-6-[4-[5-[2-(3-ethoxyphenyl)ethynyl]pyridine-3-carbonyl]piperazin-1-yl]-N-methylpyridazine-3-carboxamide]

Molecule: 4-[4-[[4-(5-Ethoxypyridin-3-yl)-3-methylphenyl]methyl]piperazin-1-yl]-N-propylbenzamide [B1M064-01]
ASMS ratio (%) n = 1 [2]: 5.4%
ASMS ratio (%) n = 2 [2]: −4.3%

ASMS ratio (%) n = 1 [1]: 4.1%
ASMS ratio (%) n = 2 [1]: 0.4%
Molecule: CCOc1cncc(-c2ccccc2CN2CCN(c3ccc(C(=O)Nc4ccc(OC)cc4)nn3)CC2)c1 [B1O072-01, 6-[4-[[2-(5-Ethoxypyridin-3-yl)phenyl]methyl]piperazin-1-yl]-N-(4-methoxyphenyl)pyridazine-3-carboxamide]

ASMS ratio (%) n = 1 [1]: 0.0%
ASMS ratio (%) n = 2 [1]: 0.0%
Molecule: CCOc1cccc(C#Cc2ccccc2C(=O)N2CCN(c3ccc(C(=O)N(C)CC45CC6CC(CC(C6)C4)C5)cc3)CC2)c1 [B3A029-01, N-(1-Adamantylmethyl)-4-[4-[2-[2-(3-ethoxyphenyl)ethynyl]benzoyl]piperazin-1-yl]-N-methylbenzamide]

ASMS ratio (%) n = 1 [2]: 8.2%
ASMS ratio (%) n = 2 [2]: 7.7%
Molecule: CCOc1cncc(-c2ccc(CN3CCN(c4ccc(C(=O)NCC56CC7CC(CC(C7)C5)C6)cc4)CC3)c3ccccc23)c1 [B1A066-01, N-(1-Adamantylmethyl)-4-[4-[[4-(5-ethoxypyridin-3-yl)naphthalen-1-yl]methyl]piperazin-1-yl]benzamide]

ASMS ratio (%) (n = 1): 8.0%
ASMS ratio (%) (n = 2): 0.0%
Molecule: CCOc1cccc(-c2csc(CN3CCN(c4ccc(C(=O)NS(=O)(=O)c5ccc(NCCSc6ccccc6)c(C(F)(F)F)c5)cc4)CC3)c2)c1 [B2R067-01, 4-[4-[[4-(3-Ethoxyphenyl)thiophen-2-yl]methyl]piperazin-1-yl]-N-[4-(2-phenylsulfanylethylamino)-3-(trifluoromethyl)phenyl]sulfonylbenzamide]

ASMS ratio (%) n = 1 (AS-MS, mixture library, Bcl-2): −2.4%
ASMS ratio (%) n = 2 (AS-MS, mixture library, Bcl-2): −4.8%
Molecule: CCOc1cccc(-c2ccc(CN3CCN(c4ccc(C(=O)NS(=O)(=O)c5ccc(NCCSc6ccccc6)c([N+](=O)[O-])c5)cc4)CC3)c(CC)c2)c1 [B2Q049-01, 4-[4-[[4-(3-Ethoxyphenyl)-2-ethylphenyl]methyl]piperazin-1-yl]-N-[3-nitro-4-(2-phenylsulfanylethylamino)phenyl]sulfonylbenzamide]

ASMS ratio (%) n = 1 [2]: −0.6%
ASMS ratio (%) n = 2 [2]: 0.5%
Molecule: CCOc1cncc(-c2cc(C(=O)N3CCN(c4ccc(C(=O)NCC(F)(F)F)nn4)CC3)cc(C(F)(F)F)c2)c1 [B1K018-01, 6-[4-[3-(5-Ethoxypyridin-3-yl)-5-(trifluoromethyl)benzoyl]piperazin-1-yl]-N-(2,2,2-trifluoroethyl)pyridazine-3-carboxamide]

ASMS ratio (%) n = 1 (AS-MS, mixture library, Bcl-2): 0.0%
ASMS ratio (%) n = 2 (AS-MS, mixture library, Bcl-2): 0.0%
Molecule: CCOc1cccc(-c2cc(CN3CCN(c4ccc(C(=O)N(CC)CC)nn4)CC3)cc(OCC)c2)c1 [B4J081-01, 6-[4-[[3-Ethoxy-5-(3-ethoxyphenyl)phenyl]methyl]piperazin-1-yl]-N,N-diethylpyridazine-3-carboxamide]

ASMS ratio (%) n = 1 (AS-MS, mixture library, Bcl-2): 0.0%
ASMS ratio (%) n = 2 (AS-MS, mixture library, Bcl-2): 0.0%
Molecule: CCOc1cccc(-c2csc(C(=O)N3CCN(c4ccc(C(=O)NS(C)(=O)=O)cc4)CC3)c2)c1 [B2I023-01, 4-[4-[4-(3-Ethoxyphenyl)thiophene-2-carbonyl]piperazin-1-yl]-N-methylsulfonylbenzamide]

ASMS ratio (%) n = 1 [1]: 9.1%
ASMS ratio (%) n = 2 [1]: −5.1%
Molecule: CCOc1cccc(C#Cc2ccccc2C(=O)N2CCN(c3ccc(C(=O)N(C)CC45CC6CC(CC(C6)C4)C5)nn3)CC2)c1 [B3A007-01, N-(1-Adamantylmethyl)-6-[4-[2-[2-(3-ethoxyphenyl)ethynyl]benzoyl]piperazin-1-yl]-N-methylpyridazine-3-carboxamide]

ASMS ratio (%) n = 1 [2]: 1.8%
ASMS ratio (%) n = 2 [2]: −0.7%
Molecule: CCOc1cncc(-c2ccc(CN3CCN(c4ccc(C(=O)NCC(F)(F)F)cc4)CC3)c3ccccc23)c1 [B1K066-01, 4-[4-[[4-(5-Ethoxypyridin-3-yl)naphthalen-1-yl]methyl]piperazin-1-yl]-N-(2,2,2-trifluoroethyl)benzamide]

ASMS ratio (%) n = 1 [2]: −0.9%
ASMS ratio (%) n = 2 [2]: −20.6%
Molecule: CCOc1cccc(-c2cc(C(=O)N3CCN(c4ccc(C(=O)NCC56CC7CC(CC(C7)C5)C6)nn4)CC3)cc(C(C)(C)C)c2)c1 [B1A015-01, N-(1-Adamantylmethyl)-6-[4-[3-tert-butyl-5-(3-ethoxyphenyl)benzoyl]piperazin-1-yl]pyridazine-3-carboxamide]

ASMS ratio (%) (n = 1): 4.9%
ASMS ratio (%) (n = 2): −4.2%
Molecule: CCOc1cncc(C#Cc2ccccc2CN2CCN(c3ccc(C(=O)NS(=O)(=O)C(C)(C)C)cc3)CC2)c1 [B2L070-01, N-tert-Butylsulfonyl-4-[4-[[2-[2-(5-ethoxypyridin-3-yl)ethynyl]phenyl]methyl]piperazin-1-yl]benzamide]

ASMS ratio (%) n = 1 [2]: 4.8%
ASMS ratio (%) n = 2 [2]: 4.5%
Molecule: CCOc1cccc(-c2ccc(C(=O)N3CCN(c4ccc(C(=O)NCC(F)(F)F)cc4)CC3)c3ccccc23)c1 [B1K035-01, 4-[4-[4-(3-Ethoxyphenyl)naphthalene-1-carbonyl]piperazin-1-yl]-N-(2,2,2-trifluoroethyl)benzamide]

ASMS ratio (%) (n = 1): 0.0%
ASMS ratio (%) (n = 2): 0.0%
Molecule: CCOc1cccc(-c2cc(OC)c(CN3CCN(c4ccc(C(=O)NS(=O)(=O)c5ccc(NCCSc6ccccc6)c(C(F)(F)F)c5)cc4)CC3)c(OC)c2)c1 [B2R059-01, 4-[4-[[4-(3-Ethoxyphenyl)-2,6-dimethoxyphenyl]methyl]piperazin-1-yl]-N-[4-(2-phenylsulfanylethylamino)-3-(trifluoromethyl)phenyl]sulfonylbenzamide]

ASMS ratio (%) n = 1 [2]: 1.6%
ASMS ratio (%) n = 2 [2]: −0.9%
Molecule: CCOc1cccc(-c2ccccc2CN2CCN(c3ccc(C(=O)NCC(F)(F)F)nn3)CC2)c1 [B1K071-01, 6-[4-[[2-(3-Ethoxyphenyl)phenyl]methyl]piperazin-1-yl]-N-(2,2,2-trifluoroethyl)pyridazine-3-carboxamide]

ASMS ratio (%) n = 1 [2]: 0.0%
ASMS ratio (%) n = 2 [2]: 0.0%
Molecule: CCOc1cncc(-c2ccc(CN3CCN(c4ccc(C(=O)NCC(F)(F)F)cc4)CC3)c(OC)c2)c1 [B1K054-01, 4-[4-[[4-(5-Ethoxypyridin-3-yl)-2-methoxyphenyl]methyl]piperazin-1-yl]-N-(2,2,2-trifluoroethyl)benzamide]
